{
  "source": "patent US11136342B2",
  "about": "“Carbonate prodrugs and methods of using the same” (Acorda Therapeutics, Inc., priority 2008, dated 2021)",
  "format_in_all_cases": "physicochemical",
  "key": {"[1]": {"assay": "Prodrug stability in D2O by proton NMR", "details": "for Remaining Prodrug: water (D2O), room temperature", "procedure": "(4-acetamidophenyl carbonic) phosphoric (29.5 mg) was dissolved in D2O (0.7 mL) and monitored by proton NMR."}, "[2]": {"assay": "Solubility of the prodrug in water, glycerol and propylene glycol", "details": "for solubility: thermodynamic from solid", "procedure": "Solubility of the prodrug (4-acetamidophenyl carbonic) phosphoric anhydride was determined in water, glycerol, and propylene glycol. 10 mg of (4-acetamidophenyl carbonic) phosphoric anhydride was weighed into a vial, small amounts of solvent were added and the mixture was sonicated until a solution formed."}, "[3]": {"assay": "Prodrug stability in propylene glycol-d8 at low temperature by 1H NMR", "procedure": "Two samples of (4-acetamidophenyl carbonic) phosphoric anhydride (20 mg each) were dissolved in propylene glycol-d8 (600 mg) and the samples were stored at 4° C. and −20° C."}, "[4]": {"assay": "Prodrug stability in propylene glycol-d8 at room temperature by 1H and 31P NMR", "procedure": "(4-acetamidophenyl carbonic) phosphoric anhydride (20.4 mg) was dissolved in 600 mg propylene glycol-d8 and ^1H and ^31P NMR spectra were recorded at room temperature. In addition to (4-acetamidophenyl carbonic) phosphoric anhydride (d−766 ppm), there were peaks at d+334, 265 (likely H3PO4) and +203 ppm."}},
  "note": "Where two headings read alike, the source gives them in different places.",
  "data": [
    {"compound": "CC(=O)Nc1ccc(OC(=O)OP(=O)(O)O)cc1", "note": "[(4-acetamidophenyl carbonic) phosphoric anhydride]", "values": [
      {"measurement": "half-life at 42.1 mg/mL", "setting": "[1]; D2O, 29.5 mg in 0.7 mL", "result": "~1.5", "unit": "h"},
      {"measurement": "Remaining Prodrug", "setting": "[1]; 3 min", "result": 94.4, "unit": "%"},
      {"measurement": "Remaining Prodrug", "setting": "[1]; 9 min", "result": 90.3, "unit": "%"},
      {"measurement": "Remaining Prodrug", "setting": "[1]; 14 min", "result": 86.4, "unit": "%"},
      {"measurement": "Remaining Prodrug", "setting": "[1]; 29 min", "result": 75.7, "unit": "%"},
      {"measurement": "Remaining Prodrug", "setting": "[1]; 39 min", "result": 70.9, "unit": "%"},
      {"measurement": "Remaining Prodrug", "setting": "[1]; 49 min", "result": 65.6, "unit": "%"},
      {"measurement": "Remaining Prodrug", "setting": "[1]; 60 min", "result": 61.0, "unit": "%"},
      {"measurement": "Remaining Prodrug", "setting": "[1]; 75 min", "result": 55.5, "unit": "%"},
      {"measurement": "Remaining Prodrug", "setting": "[1]; 90 min", "result": 50.6, "unit": "%"},
      {"measurement": "Remaining Prodrug", "setting": "[1]; 105 min", "result": 46.0, "unit": "%"},
      {"measurement": "Remaining Prodrug", "setting": "[1]; 120 min", "result": 41.7, "unit": "%"},
      {"measurement": "Remaining Prodrug", "setting": "[1]; 146 min", "result": 36.7, "unit": "%"},
      {"measurement": "Remaining Prodrug", "setting": "[1]; 188 min", "result": 29.3, "unit": "%"},
      {"measurement": "Remaining Prodrug", "setting": "[1]; 270 min", "result": 20.2, "unit": "%"},
      {"measurement": "Remaining Prodrug", "setting": "[1]; 375 min", "result": 13.9, "unit": "%"},
      {"measurement": "Remaining Prodrug", "setting": "[1]; 420 min", "result": 11.7, "unit": "%"},
      {"measurement": "Remaining Prodrug", "setting": "[1]; 495 min", "result": 8.4, "unit": "%"},
      {"measurement": "Remaining Prodrug", "setting": "[1]; 840 min", "result": 3.0, "unit": "%"},
      {"measurement": "Remaining Prodrug", "setting": "[1]; 1410 min", "result": 1.4, "unit": "%"},
      {"measurement": "solubility", "setting": "[2]; organic solvent or mixture, glycerol d=1.25 g/mL, read-out: Solubility in glycerol", "result": 20.6, "unit": "mg/mL"},
      {"measurement": "solubility", "setting": "[2]; organic solvent or mixture, propylene glycol d=1.036 g/mL, read-out: Solubility in propylene glycol", "result": 154, "unit": "mg/mL"},
      {"measurement": "solubility", "setting": "[2]; water, room temperature, read-out: Solubility in water", "result": 152, "unit": "mg/mL"},
      {"measurement": "Water solubility relative to acetaminophen", "setting": "[2]; water, room temperature", "result": "more than 10 times"},
      {"measurement": "Effect of low temperature storage on stability", "setting": "[3]; propylene glycol-d8, 4° C. and −20° C.", "result": "low temperature storage improved the stability"},
      {"measurement": "Acetaminophen Formation", "setting": "[3]; propylene glycol-d8, 4° C., 0.17 h", "result": 7.1, "unit": "%"},
      {"measurement": "Acetaminophen Formation", "setting": "[3]; propylene glycol-d8, 4° C., 19.3 h", "result": 37.8, "unit": "%"},
      {"measurement": "Acetaminophen Formation", "setting": "[3]; propylene glycol-d8, 4° C., 44.5 h", "result": 58.5, "unit": "%"},
      {"measurement": "Acetaminophen Formation", "setting": "[3]; propylene glycol-d8, 4° C., 68.7 h", "result": 71.5, "unit": "%"},
      {"measurement": "Acetaminophen Formation", "setting": "[3]; propylene glycol-d8, 4° C., 94.0 h", "result": 79.3, "unit": "%"},
      {"measurement": "Acetaminophen Formation", "setting": "[3]; propylene glycol-d8, 4° C., 116 h", "result": 83.1, "unit": "%"},
      {"measurement": "Acetaminophen Formation", "setting": "[3]; propylene glycol-d8, 4° C., 140 h", "result": 84.6, "unit": "%"},
      {"measurement": "Acetaminophen Formation", "setting": "[3]; propylene glycol-d8, −20° C., 0.17 h", "result": 10.1, "unit": "%"},
      {"measurement": "Acetaminophen Formation", "setting": "[3]; propylene glycol-d8, −20° C., 19.3 h", "result": 15.0, "unit": "%"},
      {"measurement": "Acetaminophen Formation", "setting": "[3]; propylene glycol-d8, −20° C., 44.5 h", "result": 20.5, "unit": "%"},
      {"measurement": "Acetaminophen Formation", "setting": "[3]; propylene glycol-d8, −20° C., 68.7 h", "result": 25.0, "unit": "%"},
      {"measurement": "Acetaminophen Formation", "setting": "[3]; propylene glycol-d8, −20° C., 94.0 h", "result": 29.0, "unit": "%"},
      {"measurement": "Acetaminophen Formation", "setting": "[3]; propylene glycol-d8, −20° C., 116 h", "result": 32.2, "unit": "%"},
      {"measurement": "Acetaminophen Formation", "setting": "[3]; propylene glycol-d8, −20° C., 140 h", "result": 36.2, "unit": "%"},
      {"measurement": "half-life at 34 mg/g solvent", "setting": "[4]", "result": "~6.3", "unit": "h"},
      {"measurement": "Remaining Prodrug 1H NMR", "setting": "[4]; 10 min", "result": 94.03, "unit": "%"},
      {"measurement": "Remaining Prodrug 31P NMR", "setting": "[4]; 10 min", "result": 96.7, "unit": "%"},
      {"measurement": "Remaining Prodrug 1H NMR", "setting": "[4]; 18 min", "result": 92.64, "unit": "%"},
      {"measurement": "Remaining Prodrug 31P NMR", "setting": "[4]; 18 min", "result": 94.5, "unit": "%"},
      {"measurement": "Remaining Prodrug 1H NMR", "setting": "[4]; 28 min", "result": 90.79, "unit": "%"},
      {"measurement": "Remaining Prodrug 31P NMR", "setting": "[4]; 28 min", "result": 92.1, "unit": "%"},
      {"measurement": "Remaining Prodrug 1H NMR", "setting": "[4]; 41 min", "result": 88.57, "unit": "%"},
      {"measurement": "Remaining Prodrug 31P NMR", "setting": "[4]; 41 min", "result": 89.9, "unit": "%"},
      {"measurement": "Remaining Prodrug 1H NMR", "setting": "[4]; 51 min", "result": 86.84, "unit": "%"},
      {"measurement": "Remaining Prodrug 31P NMR", "setting": "[4]; 51 min", "result": 88.4, "unit": "%"},
      {"measurement": "Remaining Prodrug 1H NMR", "setting": "[4]; 61 min", "result": 85.36, "unit": "%"},
      {"measurement": "Remaining Prodrug 31P NMR", "setting": "[4]; 61 min", "result": 86.4, "unit": "%"},
      {"measurement": "Remaining Prodrug 1H NMR", "setting": "[4]; 70 min", "result": 83.93, "unit": "%"},
      {"measurement": "Remaining Prodrug 31P NMR", "setting": "[4]; 70 min", "result": 85.0, "unit": "%"},
      {"measurement": "Remaining Prodrug 1H NMR", "setting": "[4]; 120 min", "result": 74.63, "unit": "%"},
      {"measurement": "Remaining Prodrug 31P NMR", "setting": "[4]; 120 min", "result": 77.6, "unit": "%"},
      {"measurement": "Remaining Prodrug 1H NMR", "setting": "[4]; 169 min", "result": 68.80, "unit": "%"},
      {"measurement": "Remaining Prodrug 31P NMR", "setting": "[4]; 169 min", "result": 71.7, "unit": "%"},
      {"measurement": "Remaining Prodrug 1H NMR", "setting": "[4]; 228 min", "result": 62.97, "unit": "%"},
      {"measurement": "Remaining Prodrug 31P NMR", "setting": "[4]; 228 min", "result": 64.9, "unit": "%"},
      {"measurement": "Remaining Prodrug 1H NMR", "setting": "[4]; 297 min", "result": 56.82, "unit": "%"},
      {"measurement": "Remaining Prodrug 31P NMR", "setting": "[4]; 297 min", "result": 57.4, "unit": "%"},
      {"measurement": "Remaining Prodrug 1H NMR", "setting": "[4]; 345 min", "result": 52.10, "unit": "%"},
      {"measurement": "Remaining Prodrug 31P NMR", "setting": "[4]; 345 min", "result": 52.8, "unit": "%"},
      {"measurement": "Remaining Prodrug 1H NMR", "setting": "[4]; 380 min", "result": 49.13, "unit": "%"},
      {"measurement": "Remaining Prodrug 31P NMR", "setting": "[4]; 380 min", "result": 49.6, "unit": "%"},
      {"measurement": "Remaining Prodrug 1H NMR", "setting": "[4]; 425 min", "result": 46.33, "unit": "%"},
      {"measurement": "Remaining Prodrug 31P NMR", "setting": "[4]; 425 min", "result": 46.6, "unit": "%"},
      {"measurement": "Remaining Prodrug 1H NMR", "setting": "[4]; 446 min", "result": 45.67, "unit": "%"},
      {"measurement": "Remaining Prodrug 31P NMR", "setting": "[4]; 446 min", "result": 44.0, "unit": "%"},
      {"measurement": "Remaining Prodrug 1H NMR", "setting": "[4]; 1269 min", "result": 19.61, "unit": "%"},
      {"measurement": "Remaining Prodrug 31P NMR", "setting": "[4]; 1269 min", "result": 17.1, "unit": "%"}
    ]}
  ]
}
